From publication PMC10065276, “Enhanced therapeutic window for antimicrobial Pept-ins by investigating their structure-activity relationship” (PLOS ONE, 2023) come the findings set out here.

The subject of this experiment is E. coli BL21. Conditions: BL21, 17 h. On the procedure: The peptide MIC was determined via the broth microdilution assay according to the EUCAST guideline, using 96-well polystyrene flat-bottom microtiter plates (BD Biosciences). Briefly, a single colony was inoculated in 5 mL Mueller-Hinton (MH) medium and incubated, while shaking at 37°C, to the end-exponential growth phase. The bacterial culture was subsequently diluted to 0.005 McFarland (McF) (~1.5x10^6 CFU/mL) with fresh MH medium. Two-fold serial peptide-dilutions were prepared in 50 μL MH medium resulting in a concentration range of 0.75 to 100 μg/mL (at least three wells for each concentration). Afterwards, 50 μL of the freshly diluted bacterial suspension (0.005 McF) was mixed with different peptide concentrations in the 96-well plate, performed in triplicates. The plate was ultimately incubated at 37°C overnight without shaking for 17 hours. The MIC was determined as the lowest peptide concentration without visible bacterial growth.

SMILES strings stand for the structures. Positions of bridges follow the written chain, without caps; N, C: chain ends. Residues, ends and D or L forms follow the SMILES beside them.

Turning to `CC(C)C[C@H](NC(=O)CNC(=O)[C@H](CCCNC(=N)N)NC(=O)[C@@H]1CCCN1C(=O)[C@H](CCCNC(=N)N)NC(=O)[C@H](CCCNC(=N)N)NC(=O)[C@@H](NC(=O)[C@H](CC(C)C)NC(=O)[C@H](C)NC(=O)[C@H](CC(C)C)NC(=O)CNC(=O)[C@H](CC(C)C)NC(=O)CNC(=O)[C@@H](N)CCCNC(=N)N)C(C)C)C(=O)NCC(=O)N[C@@H](CC(C)C)C(=O)N[C@@H](Cc1ccccc1)C(=O)N[C@@H](CC(C)C)C(=O)N[C@H](C(=O)N[C@@H](CCCNC(=N)N)C(=O)N[C@@H](CCCNC(=N)N)C(=O)O)C(C)C` [Peptide P2_A5F] (H-RGLGLALVRRPRGLGLFLVRR-OH), the “BL21 MIC” value came out at 3.13 µg/mL. Regarding `CC(C)C[C@H](NC(=O)CNC(=O)[C@H](CCCNC(=N)N)NC(=O)[C@@H]1CCCN1C(=O)[C@H](CCCNC(=N)N)NC(=O)[C@H](CCCNC(=N)N)NC(=O)[C@@H](NC(=O)[C@H](CC(C)C)NC(=O)[C@H](C)NC(=O)[C@H](C)NC(=O)CNC(=O)[C@H](CC(C)C)NC(=O)CNC(=O)[C@@H](N)CCCNC(=N)N)C(C)C)C(=O)NCC(=O)N[C@@H](CC(C)C)C(=O)N[C@@H](C)C(=O)N[C@@H](CC(C)C)C(=O)N[C@H](C(=O)N[C@@H](CCCNC(=N)N)C(=O)N[C@@H](CCCNC(=N)N)C(=O)O)C(C)C` [Peptide P2_L5A] (H-RGLGAALVRRPRGLGLALVRR-OH), the “BL21 MIC” value was 50.00 µg/mL. On to `CC(C)C[C@H](NC(=O)CNC(=O)[C@H](CCCNC(=N)N)NC(=O)[C@@H]1CCCN1C(=O)[C@H](CCCNC(=N)N)NC(=O)[C@H](CCCNC(=N)N)NC(=O)[C@@H](NC(=O)[C@H](CC(C)C)NC(=O)[C@H](Cc1c[nH]c2ccccc12)NC(=O)[C@H](CC(C)C)NC(=O)CNC(=O)[C@H](CC(C)C)NC(=O)CNC(=O)[C@@H](N)CCCNC(=N)N)C(C)C)C(=O)NCC(=O)N[C@@H](CC(C)C)C(=O)N[C@@H](Cc1c[nH]c2ccccc12)C(=O)N[C@@H](CC(C)C)C(=O)N[C@H](C(=O)N[C@@H](CCCNC(=N)N)C(=O)N[C@@H](CCCNC(=N)N)C(=O)O)C(C)C` [A5W (P2)] (H-RGLGLWLVRRPRGLGLWLVRR-OH), for which the “BL21 MIC” value was 12.50 µg/mL. Still for that read-out and setting: next, `CC(C)C[C@H](NC(=O)CNC(=O)[C@H](CCCNC(=N)N)NC(=O)[C@@H]1CCCN1C(=O)[C@H](CCCNC(=N)N)NC(=O)[C@H](CCCNC(=N)N)NC(=O)[C@@H](NC(=O)[C@H](CC(C)C)NC(=O)[C@H](Cc1ccccc1)NC(=O)[C@H](CC(C)C)NC(=O)CNC(=O)[C@H](CC(C)C)NC(=O)CNC(=O)[C@@H](N)CCCNC(=N)N)C(C)C)C(=O)NCC(=O)N[C@@H](CC(C)C)C(=O)N[C@@H](Cc1ccccc1)C(=O)N[C@@H](CC(C)C)C(=O)N[C@H](C(=O)N[C@@H](CCCNC(=N)N)C(=O)N[C@@H](CCCNC(=N)N)C(=O)O)C(C)C` [A5F (P2)] (H-RGLGLFLVRRPRGLGLFLVRR-OH): 12.50 µg/mL; `CC(C)C[C@H](NC(=O)CNC(=O)[C@H](CC(C)C)NC(=O)CNC(=O)[C@H](CCCNC(=N)N)NC(=O)[C@@H]1CCCN1C(=O)[C@H](CCCNC(=N)N)NC(=O)[C@H](CCCNC(=N)N)NC(=O)[C@@H](NC(=O)[C@H](CC(C)C)NC(=O)CNC(=O)[C@H](CC(C)C)NC(=O)CNC(=O)[C@H](CC(C)C)NC(=O)CNC(=O)[C@@H](N)CCCNC(=N)N)C(C)C)C(=O)NCC(=O)N[C@@H](CC(C)C)C(=O)N[C@H](C(=O)N[C@@H](CCCNC(=N)N)C(=O)N[C@@H](CCCNC(=N)N)C(=O)O)C(C)C` [A5G (P2)] (H-RGLGLGLVRRPRGLGLGLVRR-OH): 25.00 µg/mL; `CC[C@H](C)[C@H](NC(=O)CNC(=O)[C@H](CC(C)C)NC(=O)[C@H](CCCNC(=N)N)NC(=O)[C@@H]1CCCN1C(=O)[C@H](CC(C)C)NC(=O)[C@H](C)NC(=O)[C@@H](NC(=O)[C@H](C)NC(=O)[C@@H](NC(=O)CNC(=O)[C@H](CC(C)C)NC(=O)[C@@H](N)CCCNC(=N)N)[C@@H](C)CC)C(C)C)C(=O)N[C@@H](C)C(=O)N[C@H](C(=O)N[C@@H](C)C(=O)N[C@@H](CC(C)C)C(=O)N[C@@H](CCCNC(=N)N)C(=O)O)C(C)C` [Peptide P33_3R_1] (H-RLGIAVALPRLGIAVALR-OH): 12.5 µg/mL. The same measure, in the same setting: next, `CC[C@H](C)[C@H](NC(=O)CNC(=O)[C@H](CC(C)C)NC(=O)[C@H](CCCNC(=N)N)NC(=O)[C@@H]1CCCN1C(=O)[C@H](CCCNC(=N)N)NC(=O)[C@H](CCCNC(=N)N)NC(=O)[C@H](CC(C)C)NC(=O)[C@H](C)NC(=O)[C@@H](NC(=O)[C@H](C)NC(=O)[C@@H](NC(=O)CNC(=O)[C@H](CC(C)C)NC(=O)[C@@H](N)CCCNC(=N)N)[C@@H](C)CC)C(C)C)C(=O)N[C@@H](C)C(=O)N[C@H](C(=O)N[C@@H](C)C(=O)N[C@@H](CC(C)C)C(=O)N[C@@H](C)C(=O)N[C@@H](C)C(=O)O)C(C)C` [Peptide P33_4R_6] (H-RLGIAVALRRPRLGIAVALAA-OH): 12.50 µg/mL.

Regarding `CC(C)C[C@H](NC(=O)CNC(=O)[C@H](CCCNC(=N)N)NC(=O)[C@@H]1CSSC[C@H](NC(=O)[C@@H](NC(=O)[C@H](CC(C)C)NC(=O)[C@H](C)NC(=O)[C@H](CC(C)C)NC(=O)CNC(=O)[C@H](CC(C)C)NC(=O)CNC(=O)[C@@H](N)CCCNC(=N)N)C(C)C)C(=O)N[C@@H](CCCNC(=N)N)C(=O)N[C@@H](CCCNC(=N)N)C(=O)N[C@@H](CCCNC(=N)N)C(=O)N[C@@H](Cc2ccccc2)C(=O)N1)C(=O)NCC(=O)N[C@@H](CC(C)C)C(=O)N[C@@H](C)C(=O)N[C@@H](CC(C)C)C(=O)N[C@H](C(=O)N[C@@H](CCCNC(=N)N)C(=O)N[C@@H](CCCNC(=N)N)C(=O)O)C(C)C` [Peptide P2_H12_FC] (H-RGLGLALVCRRRFCRGLGLALVRR-OH; disulfide 9-14), the “BL21 MIC, SS bond” value stood at 3.50 µg/mL and the “BL21 MIC, no SS bond” value turned out to be 6.25 µg/mL. `CC(C)C[C@H](NC(=O)CNC(=O)[C@H](CCCNC(=N)N)NC(=O)[C@@H]1CCCN1C(=O)[C@H](CCCNC(=N)N)NC(=O)[C@H](CCCNC(=N)N)NC(=O)[C@@H](NC(=O)[C@H](CC(C)C)NC(=O)[C@H](C)NC(=O)[C@H](CC(C)C)NC(=O)CNC(=O)[C@H](CC(C)C)NC(=O)CNC(=O)[C@@H](N)CCCNC(=N)N)C(C)C)C(=O)NCC(=O)N[C@@H](CC(C)C)C(=O)N[C@@H](C)C(=O)N[C@@H](C)C(=O)N[C@H](C(=O)N[C@@H](CCCNC(=N)N)C(=O)N[C@@H](CCCNC(=N)N)C(=O)O)C(C)C` [Peptide P2_L18A] (H-RGLGLALVRRPRGLGLAAVRR-OH): the “BL21 MIC” value is 50.00 µg/mL. Still for that read-out and setting: next, `CC[C@H](C)[C@H](NC(=O)CNC(=O)[C@H](CC(C)C)NC(=O)[C@@H]1CCCN1C(=O)[C@H](CCCNC(=N)N)NC(=O)[C@H](CC(C)C)NC(=O)[C@H](C)NC(=O)[C@@H](NC(=O)[C@H](C)NC(=O)[C@@H](NC(=O)CNC(=O)[C@H](CC(C)C)NC(=O)[C@@H](N)CCCNC(=N)N)[C@@H](C)CC)C(C)C)C(=O)N[C@@H](C)C(=O)N[C@H](C(=O)N[C@@H](C)C(=O)N[C@@H](CC(C)C)C(=O)N[C@@H](CCCNC(=N)N)C(=O)O)C(C)C` [Peptide P33_3R_2] (H-RLGIAVALRPLGIAVALR-OH): 25.00 µg/mL.
